The record followed here is ChEMBL document CHEMBL1201862, “PubChem BioAssay data set” (2004).

Experiment [1] has as its target T1, Nucleotide-binding oligomerization domain-containing protein 2 (Homo sapiens, UniProt Q9HC29). The experiment can be described thus: NOD2 signaling inhibitors, analog potency, SAR follow-up, cell-based, set 3 (AID 2799). The class given is functional.
Experiment [2] has as its target T2, Nucleotide-binding oligomerization domain-containing protein 1 (Homo sapiens, UniProt Q9Y239).
T2 sequence (Q9Y239 whole entry): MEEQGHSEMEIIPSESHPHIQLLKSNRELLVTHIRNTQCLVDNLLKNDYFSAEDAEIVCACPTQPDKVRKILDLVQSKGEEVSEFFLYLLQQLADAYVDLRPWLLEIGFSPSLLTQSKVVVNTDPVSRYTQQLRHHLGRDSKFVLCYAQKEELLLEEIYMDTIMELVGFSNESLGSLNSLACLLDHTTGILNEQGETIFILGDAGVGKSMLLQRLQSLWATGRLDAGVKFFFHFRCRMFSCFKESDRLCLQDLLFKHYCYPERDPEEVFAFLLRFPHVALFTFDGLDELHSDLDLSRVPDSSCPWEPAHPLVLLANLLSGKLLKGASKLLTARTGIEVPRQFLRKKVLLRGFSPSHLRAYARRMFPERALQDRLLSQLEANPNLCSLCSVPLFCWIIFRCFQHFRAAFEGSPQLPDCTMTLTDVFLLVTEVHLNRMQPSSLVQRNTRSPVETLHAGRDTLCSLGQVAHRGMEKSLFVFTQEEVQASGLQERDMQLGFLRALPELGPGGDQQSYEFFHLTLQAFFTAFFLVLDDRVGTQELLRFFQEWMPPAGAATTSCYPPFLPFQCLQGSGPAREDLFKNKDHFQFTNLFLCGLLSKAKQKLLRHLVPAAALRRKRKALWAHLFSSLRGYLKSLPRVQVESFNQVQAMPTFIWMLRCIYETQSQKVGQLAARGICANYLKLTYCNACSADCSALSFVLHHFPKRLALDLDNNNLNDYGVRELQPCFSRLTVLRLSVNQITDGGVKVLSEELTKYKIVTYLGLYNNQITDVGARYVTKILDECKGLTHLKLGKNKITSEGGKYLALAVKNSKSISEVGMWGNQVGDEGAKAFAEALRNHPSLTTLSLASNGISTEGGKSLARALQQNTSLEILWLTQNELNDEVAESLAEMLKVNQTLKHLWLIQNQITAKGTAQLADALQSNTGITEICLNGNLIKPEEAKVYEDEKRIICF
Nature of the experiment: SAR analysis of compounds that inhibit NOD1 - Set 3. [Related pubchem assays (depositor defined):AID1566, AID1575, AID1578, AID1849, AID1852, AID2333, AID2335, AID2466]. It counts as functional.

Another experiment has as its target Tumor necrosis factor (Homo sapiens, UniProt P01375). The experiment can be described thus: TNFa-triggered NF-kB activation inhibitors, SAR follow-up, cell-based, set 3 (AID 2801). It counts as functional.
In experiment [3] the test system is HEK293. The experiment can be described thus: SAR analysis of compounds that are cytotoxic to HEK293 - Set 3. [Related pubchem assays (depositor defined):AID1575, AID1578, AID1848, AID1849, AID2001, AID2333, AID2334, AID2335, AID2337, AID2469]. It counts as functional, cell-based. The note with it: Homo sapiens.
Experiment [4] relates to HEK293. The experiment can be described thus: SAR analysis of compounds that are cytotoxic to HEK293 - Set 2. [Related pubchem assays (depositor defined):AID1575, AID1578, AID1849, AID2001, AID2333, AID2334, AID2335, AID2337, AID2800]. It counts as functional, cell-based. The note with it: Homo sapiens.
The target of experiment [5] is T2, Nucleotide-binding oligomerization domain-containing protein 1. Nature of the experiment: SAR analysis of NF-kappaB dependent luciferase using DAP as an inducer - Set 2. [Related pubchem assays (depositor defined):AID1566, AID1575, AID1578, AID1579, AID1849, AID1852, AID2264]. The class given is functional.
Experiment [6] concerns the target T3, Interleukin-8 (Homo sapiens, UniProt P10145). Nature of the experiment: SAR analysis of GM-Tri-DAP induced IL-8 secretion in MCF-7/NOD1 cells - Set 2. [Related pubchem assays (depositor defined):AID1575, AID1578, AID2333]. The class given is functional, cell-based.
Experiment [7] concerns the target T3, Interleukin-8. The experiment can be described thus: SAR analysis of Tumor necrosis factor alpha (TNF-alpha) induced IL-8 secretion in MCF-7/NOD1 cells - Set 2. [Related pubchem assays (depositor defined):AID1575, AID2250, AID2260]. The class given is functional, cell-based.
Experiment [8] has as its target T1, Nucleotide-binding oligomerization domain-containing protein 2. Nature of the experiment: NOD2 inhibitors, SAR follow-up, set 2 (AID 2475). It counts as functional.
The target in experiment [9] is T4, Cannabinoid receptor 2 (Homo sapiens, UniProt P34972). Nature of the experiment: SAR analysis of agonists of the Cannabinoid Receptor 2 using an Image-Based Assay. [Related pubchem assays (depositor defined):AID2013, AID2026]. It counts as functional.
Experiment [10] addresses T5, G-protein coupled receptor 55 (Homo sapiens, UniProt Q9Y2T6). The experiment can be described thus: GPR55 antagonist potency of analogs, SAR follow-up, imaging, U2OS, beta-arrestin-GFP, LPI agonist, set 2 (AID 2820). It counts as functional.
The target in experiment [11] is T6, G-protein coupled receptor 35 (Homo sapiens, UniProt Q9HC97). Nature of the experiment: SAR analysis of Antagonists of the GPR35 Receptor using an Image-Based Assay - Set 3. [Related pubchem assays (depositor defined):AID2013, AID2026]. It counts as functional.
Experiment [12] deals with T7, Cannabinoid receptor 1 (Homo sapiens, UniProt P21554). The experiment can be described thus: SAR analysis of antagonists of the Cannabinoid Receptor 1 using an Image-Based Assay - Set 2. [Related pubchem assays (depositor defined):AID2013, AID2026]. The class given is functional.
Experiment [13] has as its target T6, G-protein coupled receptor 35. The experiment can be described thus: SAR analysis of Agonists of the GPR35 Receptor using an Image-Based Assay - Set 2. [Related pubchem assays (depositor defined):AID2013, AID2026]. The class given is functional.
The next experiment concerns the target T8, Streptokinase A (Streptococcus pyogenes serotype M1, UniProt P10520).
T8 sequence (P10520 whole entry): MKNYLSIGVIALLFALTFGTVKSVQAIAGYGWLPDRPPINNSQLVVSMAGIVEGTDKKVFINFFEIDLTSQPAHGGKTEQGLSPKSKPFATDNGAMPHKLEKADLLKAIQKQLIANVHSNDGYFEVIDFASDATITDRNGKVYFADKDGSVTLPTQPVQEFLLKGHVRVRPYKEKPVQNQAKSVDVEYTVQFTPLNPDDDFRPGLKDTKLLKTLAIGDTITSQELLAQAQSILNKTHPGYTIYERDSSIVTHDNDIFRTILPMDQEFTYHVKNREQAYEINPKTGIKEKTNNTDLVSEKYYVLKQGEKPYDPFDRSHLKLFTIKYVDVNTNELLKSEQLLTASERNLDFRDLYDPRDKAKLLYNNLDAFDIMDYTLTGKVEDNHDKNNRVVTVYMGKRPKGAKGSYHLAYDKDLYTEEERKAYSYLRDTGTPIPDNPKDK
Nature of the experiment: S. pyogenes streptokinase expression inhibitors, potency, dose response, plasminogen activation absorbance, OD405 (AID 1914).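 Also: secreted streptokinase activity via plasminogen activation per viability signal from cell pellet.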 The class given is functional, Streptococcus pyogenes M1 GAS.

The target of experiment [14] is T7, Cannabinoid receptor 1. Nature of the experiment: SAR analysis of agonists of the Cannabinoid Receptor 1 using an Image-Based Assay - Set 2. [Related pubchem assays (depositor defined):AID2013, AID2026]. It counts as functional.
For experiment [15], the target named is T5, G-protein coupled receptor 55. Nature of the experiment: GPR55 antagonists blocking LPI-driven arrestin recruitment, primary screen, imaging, U2OS, beta-arrestin-GFP, LPI agonist (AID 2013).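 Also: antagonist potency measured as reduced agonist-driven arrestin aggregation.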 It counts as functional. In general terms: Recruitment of arrestin is a read-out of receptor activation apart from second messengers.
The target in experiment [16] is T4, Cannabinoid receptor 2. Nature of the experiment: SAR analysis of antagonists of the Cannabinoid Receptor 2 using an Image-Based Assay. [Related pubchem assays (depositor defined):AID2013, AID2026]. It counts as functional.
Experiment [17] relates to Streptococcus sp. 'group A'. Nature of the experiment: growth inhibition of control SK(-) GAS strain, dose response, counter-screen for streptokinase expression inhibitor project, luminescence, kanamycin, BacTiterGlo, confirmation (AID 1900). The class given is functional, organism-based. In general terms: A counterscreen serves to expose hits that act by an unwanted route or on another target.

The next experiment relates to Streptococcus. Nature of the experiment: Group A Streptococcus viability loss, dose response, counter-screen for streptokinase expression inhibitor project, luminescence, BacTiterGlo (AID 1915).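 Also: potency for reduction of bacterial viability or growth.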 The class given is functional, organism-based.
Another experiment concerns the target Exodeoxyribonuclease V (Escherichia coli (strain K12), UniProt P04993+P07648+P08394). The experiment can be described thus: E. coli RecBCD inhibitors, dose response, counter-screen for AddAB inhibitor project, absorbance, V66 E. coli, mutant T4 phage (AID 492957). It counts as functional, cell-based, Escherichia coli str. K-12 substr. MG1655.
The nature of experiment [18]: Counterscreen for AddAB inhibitors: absorbance-based bacterial cell-based high throughput dose response assay for inhibitors of bacterial viability. [Related pubchem assays (depositor defined):AID435030, AID449728, AID449731, AID488942, AID488955, AID488956]. It counts as functional.
A short description of experiment [19]: cytotoxicity in KRAS-transformed pancreatic duct cells, primary screen, cell-based, fluorescence, HTS (AID 431). It counts as functional. Conditions: Homo sapiens.
Experiment [20] in a line: cytotoxicity in HPDE-C7 cells, cell-based, fluorescence, HTS (AID 430). It counts as functional. Conditions: Homo sapiens.

Active and inactive are the calls of the source.

T6 sequence (Q9HC97 whole entry): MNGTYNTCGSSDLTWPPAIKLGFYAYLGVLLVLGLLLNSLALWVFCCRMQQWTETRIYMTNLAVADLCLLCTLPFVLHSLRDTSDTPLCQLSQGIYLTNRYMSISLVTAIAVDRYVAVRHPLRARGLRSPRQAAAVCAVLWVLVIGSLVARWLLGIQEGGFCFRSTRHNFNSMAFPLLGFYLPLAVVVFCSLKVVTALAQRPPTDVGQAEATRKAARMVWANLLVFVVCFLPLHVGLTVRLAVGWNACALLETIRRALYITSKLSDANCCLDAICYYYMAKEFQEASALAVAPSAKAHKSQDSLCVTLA
T3 sequence (P10145 whole entry): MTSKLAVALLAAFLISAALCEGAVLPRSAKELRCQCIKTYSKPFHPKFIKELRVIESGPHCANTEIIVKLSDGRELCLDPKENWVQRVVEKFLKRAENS
T5 sequence (Q9Y2T6 whole entry): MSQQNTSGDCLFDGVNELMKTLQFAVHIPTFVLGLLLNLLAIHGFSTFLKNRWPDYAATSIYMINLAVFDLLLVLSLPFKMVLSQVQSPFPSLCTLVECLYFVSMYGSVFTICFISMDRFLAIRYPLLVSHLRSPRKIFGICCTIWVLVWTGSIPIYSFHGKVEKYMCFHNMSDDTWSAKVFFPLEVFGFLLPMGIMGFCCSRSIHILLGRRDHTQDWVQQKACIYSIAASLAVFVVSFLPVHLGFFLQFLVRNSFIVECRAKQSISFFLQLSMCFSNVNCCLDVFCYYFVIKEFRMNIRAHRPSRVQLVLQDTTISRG
T7 sequence (P21554 whole entry): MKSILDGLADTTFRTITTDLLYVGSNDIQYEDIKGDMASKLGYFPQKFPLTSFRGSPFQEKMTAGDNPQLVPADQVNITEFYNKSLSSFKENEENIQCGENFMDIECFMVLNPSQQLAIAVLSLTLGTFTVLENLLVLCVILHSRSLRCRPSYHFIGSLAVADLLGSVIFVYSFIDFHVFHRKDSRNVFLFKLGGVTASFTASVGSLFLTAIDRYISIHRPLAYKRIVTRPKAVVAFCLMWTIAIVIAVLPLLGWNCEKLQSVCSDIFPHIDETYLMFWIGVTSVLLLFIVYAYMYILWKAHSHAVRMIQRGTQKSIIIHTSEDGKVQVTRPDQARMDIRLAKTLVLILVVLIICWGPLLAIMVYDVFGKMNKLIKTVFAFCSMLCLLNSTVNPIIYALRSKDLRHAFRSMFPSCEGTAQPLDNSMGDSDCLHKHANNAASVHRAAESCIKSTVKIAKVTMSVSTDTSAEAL
T1 sequence (Q9HC29 whole entry, the tested form may be a part): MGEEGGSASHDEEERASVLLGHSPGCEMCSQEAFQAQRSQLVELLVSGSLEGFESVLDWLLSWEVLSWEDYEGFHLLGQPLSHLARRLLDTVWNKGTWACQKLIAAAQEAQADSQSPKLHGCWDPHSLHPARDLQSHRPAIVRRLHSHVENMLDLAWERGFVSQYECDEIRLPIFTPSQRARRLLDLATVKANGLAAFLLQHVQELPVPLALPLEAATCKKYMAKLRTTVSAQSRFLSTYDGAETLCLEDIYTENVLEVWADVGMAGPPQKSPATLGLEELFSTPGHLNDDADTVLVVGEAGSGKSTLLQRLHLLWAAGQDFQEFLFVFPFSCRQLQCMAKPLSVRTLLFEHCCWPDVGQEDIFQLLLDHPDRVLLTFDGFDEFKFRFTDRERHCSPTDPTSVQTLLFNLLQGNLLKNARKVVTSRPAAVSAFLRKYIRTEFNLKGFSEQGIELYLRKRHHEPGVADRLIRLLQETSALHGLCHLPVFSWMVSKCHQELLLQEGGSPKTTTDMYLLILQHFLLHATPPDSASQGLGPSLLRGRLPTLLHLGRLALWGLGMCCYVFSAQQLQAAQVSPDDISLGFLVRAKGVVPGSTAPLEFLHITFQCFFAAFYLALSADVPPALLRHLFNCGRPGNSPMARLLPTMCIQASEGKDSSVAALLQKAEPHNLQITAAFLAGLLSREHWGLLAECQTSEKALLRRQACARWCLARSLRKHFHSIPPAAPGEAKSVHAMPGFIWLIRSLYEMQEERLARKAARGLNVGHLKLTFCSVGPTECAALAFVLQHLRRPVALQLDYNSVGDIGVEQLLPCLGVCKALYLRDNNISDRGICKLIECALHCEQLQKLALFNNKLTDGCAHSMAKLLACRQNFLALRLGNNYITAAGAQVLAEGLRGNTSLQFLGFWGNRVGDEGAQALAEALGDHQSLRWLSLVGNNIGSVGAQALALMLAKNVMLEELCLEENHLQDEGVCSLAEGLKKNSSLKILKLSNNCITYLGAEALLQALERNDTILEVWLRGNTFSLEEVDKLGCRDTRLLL
T4 sequence (P34972 whole entry): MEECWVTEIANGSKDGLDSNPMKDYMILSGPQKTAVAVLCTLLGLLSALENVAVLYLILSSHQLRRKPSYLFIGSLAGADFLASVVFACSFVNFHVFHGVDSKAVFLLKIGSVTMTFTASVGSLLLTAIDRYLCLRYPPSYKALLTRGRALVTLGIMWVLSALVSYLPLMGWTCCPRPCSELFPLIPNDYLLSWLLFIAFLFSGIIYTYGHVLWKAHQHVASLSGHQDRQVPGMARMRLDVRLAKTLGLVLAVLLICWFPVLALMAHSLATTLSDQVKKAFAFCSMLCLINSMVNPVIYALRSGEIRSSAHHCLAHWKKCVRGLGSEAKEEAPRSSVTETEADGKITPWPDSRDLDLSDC
Tumor necrosis factor, sequence (P01375 whole entry): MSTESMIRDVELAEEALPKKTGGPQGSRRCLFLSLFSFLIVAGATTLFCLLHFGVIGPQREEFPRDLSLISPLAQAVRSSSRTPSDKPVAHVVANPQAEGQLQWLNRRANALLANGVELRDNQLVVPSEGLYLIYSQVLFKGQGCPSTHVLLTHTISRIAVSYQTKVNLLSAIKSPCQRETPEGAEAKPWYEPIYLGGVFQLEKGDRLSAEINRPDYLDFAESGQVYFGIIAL

In general, IC50 refers to the concentration needed to halve the response being measured. Consider `C/C=C/Cn1c(SCc2ccccc2)nc2c1c(=O)[nH]c(=O)n2C`, for which the IC50 is > 20 µM (inactive) in experiment [1]; 18.6 µM (active) in experiment [2]; > 20 µM (inactive) at Tumor necrosis factor; > 20 µM (inactive) in the experiment on HEK293 [3]; > 20 µM (inactive) in the experiment on HEK293 [4]; > 25 µM (inactive) in [5]. The IC50 on Interleukin-8 [6] is > 25 µM (inactive); at Interleukin-8 [7], > 25 µM (inactive); in experiment [8], > 20 µM (inactive).
One may read the EC50 as the concentration that produces a half-maximal response. Regarding `Cc1ccc(-n2cc3c(-c4cccc(Br)c4)nnc(C)c3n2)cc1`, the EC50 at Cannabinoid receptor 2 [9] is > 32 µM (inactive); in experiment [13], > 32 µM (inactive); on Streptokinase A it was 94.1 µM (active); on Cannabinoid receptor 1 [14], > 32 µM (inactive); in [17] it was 7.37 µM (active); in the experiment with Streptococcus, 46.9 µM (active). Further, the IC50 is 1.24 µM (active) in experiment [10]; > 32 µM (inactive) in experiment [11]; 2.94 µM (active) on Cannabinoid receptor 1 [12]; 2.21 µM (active) in [15]; 23.8 µM (inactive) at Cannabinoid receptor 2 [16].
`O=C(Nc1nnc(-c2ccccc2)o1)c1ccc(Cl)cc1`: the IC50 at Exodeoxyribonuclease V is 44.2 µM (inactive); in experiment [18], 47 µM (inactive). Further, the EC50 in experiment [19] is 3.15 µM (active); in experiment [20], 3.14 µM (active); in [17], 0.26 µM (active); in the experiment on Streptococcus, 0.67 µM (active).
